This passage reports IC50 and inhibition results from patent US20140187556A1, “ANTI-AMYLOID COMPOUNDS AND METHODS” (Treventis Corporation, priority 2011, published 2014).

The experiment deals with T1, Aβ40 (Homo sapiens, UniProt P05067).
T1 construct: pre-treated Aβ40 (40 μM in 20 mM Tris, pH 7.4)
Nature of the experiment: Thioflavin T (ThT) Aβ aggregation assay. In kind it is biochemical. The following applies: for IC50: 20 μM Aβ40, 37 degrees C. On the procedure:
Aβ40 (1.0 mg) was pre-treated in a 1.5 mL microfuge tube with HFIP (1 mL) and sonicated for 20 min to disassemble any pre-formed Aβ aggregates. The HFIP was removed with a stream of argon and the Aβ dissolved in Tris base (5.8 mL, 20 mM, pH ˜10). The pH was adjusted to 7.4 with concentrated HCl (−10 μL) and the solution filtered using a syringe filter (0.2 μm) before being used.
The kinetic ThT assay for Aβ aggregation is similar to that of Chalifour et al (Chalifour et al, 2003, J. Biol. Chem. 278:34874-81). Briefly, pre-treated Aβ40 (40 μM in 20 mM Tris, pH 7.4), was diluted with an equal volume of 8 μM ThT in Tris (20 mM, pH 7.4, 300 mM NaCl). Aliquots of Aβ/ThT (200 μL) were added to wells of a black polystyrene 96-well plate, followed by 2 μL of a compound in DMSO (variable concentration), or DMSO alone (controls). Incubations were performed in triplicate and were taken to contain 20 μM Aβ, various concentration of compound in 20 mM Tris, pH 7.4, 150 mM NaCl, 1% DMSO. Plates were covered with clear polystyrene lids and incubated at 37 degrees C. in a Tecan Genios microplate reader. Fluorescence readings (λex=450 nm, λem=480 nm) were taken every 15 min., after first shaking at high intensity for 15 s and allowing to settle for 10 s before each reading. Active compounds attenuated the increase in fluorescence over time that occurred in controls.

T1 sequence (P05067 672-711 limits assumed): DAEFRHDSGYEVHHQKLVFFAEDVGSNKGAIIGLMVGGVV

In general, IC50 refers to the concentration needed to halve the response being measured. Compound `O=[N+]([O-])c1ccc(-c2ccccc2-c2nnn[nH]2)cc1NCc1ccccc1` [TRV 1125, N-benzyl-4-nitro-2′-(1H-tetrazol-5-yl)-[1,1′-biphenyl]-3-amine] returned a 50% inhibitory concentration (IC50) of 12.5 ± 2.79 µM.
In the case of `O=C(c1ccccc1)N1CCN(c2ccc(OC(F)F)c(NCc3ccccc3)c2)CC1` [TRV 1184, (4-(3-(benzyl amino)-4-(difluoromethoxy)phenyl)piperazin-1-yl)(phenyl)methanone], the IC50 was > 50 µM.
Same read-out and setting: the value for `O=C(C1CCCN(c2ccc([N+](=O)[O-])c(NCc3ccccc3)c2)C1)N1CCCC1` (stereo not shown) [TRV 1131, (1-(3-(benzylamino)-4-nitrophenyl)piperidin-3-yl)(pyrrolidin-1-yl)methanone] was 27.8 ± 27.6 µM.
Same read-out and setting: the value for `O=C(c1ccccc1)N1CCN(c2ccc(-n3cnnn3)c(NCc3ccccc3)c2)CC1` [TRV 1178, (4-(3-(benzylamino)-4-(1H-tetrazol-1-yl)phenyl)piperazin-1-yl)(phenyl)methanone] was > 50 µM; that for `O=C(c1ccccc1)N1CCN(c2cc(F)c(F)c(NCc3ccccc3)c2)CC1` [TRV 1190, (4-(3-(benzylamino)-4,5-difluorophenyl)piperazin-1-yl)(phenyl)methanone] was ~50 µM.
The same measure, in the same setting: the value for `N#Cc1ccc(N2CCN(C(=O)c3ccccc3)CC2)cc1N1CCCC1` [TRV 1167, 4-(4-benzoylpiperazin-1-yl)-2-(pyrrolidin-1-yl)benzonitrile] was > 50 µM; that for `CC(=O)N1CCN(C(=O)c2cccc(-c3ccc([N+](=O)[O-])c(NCc4ccccc4)c3)c2)CC1` [TRV 1114, 1-(4-(3′-(benzylamino)-4′-nitrobiphenylcarbonyl)piperazin-1-yl)ethanone] was > 50 µM; that for `CNC(=O)c1cccc(-c2ccc([N+](=O)[O-])c(NCc3ccccc3)c2)c1` [TRV 1101, 3′-(benzylamino)-N-methyl-4′-nitrobiphenyl-3-carboxamide] was > 50 µM.
Regarding `O=C(c1ccccc1)N1CCN(c2ccc(F)c(NCc3ccccc3)c2)CC1` [TRV 1159, (4-(3-(benzylamino)-4-fluorophenyl)piperazin-1-yl)(phenyl)methanone], the IC50 is > 50 µM.
The same measure, in the same setting: the value for `O=C(c1ccccc1)N1CCN(c2ccc([N+](=O)[O-])c(N3CCCCC3)c2)CC1` [TRV 1137, (4-(4-nitro-3-(piperidin-1-yl)phenyl)piperazin-1-yl)(phenyl)methanone] was ~10 µM; that for `O=C(c1ccccc1)N1CCN(c2ccc([N+](=O)[O-])c(NC3CCC3)c2)CC1` [TRV 1149, (4-(3-(cyclobutylamino)-4-nitrophenyl)piperazin-1-yl)(phenyl)methanone] was > 10 µM.
The same measure, in the same setting: the value for `CN(C)C(=O)C1CCN(c2ccc([N+](=O)[O-])c(NCc3ccccc3)c2)CC1` [TRV 1134, 1-(3-(benzylamino)-4-nitrophenyl)-N,N-dimethylpiperidine-4-carboxamide] was 10.7 ± 0.54 µM; that for `CN(c1cc(N2CCN(C(=O)c3ccccc3)CC2)ccc1[N+](=O)[O-])C1CCC1` [TRV 1154, (4-(3-(cyclobutyl(methyl)amino)-4-nitrophenyl)piperazin-1-yl)(phenyl)methanone] was 11.6 ± 1.24 µM.
Same read-out and setting: next, `O=C(c1ccccc1)N1CCN(c2cc(F)c(C(F)(F)F)c(N3CCCC3)c2)CC1` [TRV 1175, (4-(3-fluoro-5-(pyrrolidin-1-yl)-4-(trifluoromethyl)phenyl)piperazin-1-yl)(phenyl)methanone]: > 50 µM; `O=C(c1ccccc1)N1CCN(c2ccc([N+](=O)[O-])c(N3CCC(N4CCCC4)CC3)c2)CC1` [TRV 1139, (4-(4-nitro-3-(4-(pyrrolidin-1-yl)piperidin-1-yl)phenyl)piperazin-1-yl)(phenyl)methanone]: ~10 µM; `CN(C)C(=O)C1CCCN(c2ccc([N+](=O)[O-])c(NCc3ccccc3)c2)C1` (stereo not shown) [TRV 1132, 1-(3-(benzylamino)-4-nitrophenyl)-N,N-dimethylpiperidine-3-carboxamide]: 11.5 ± 0.29 µM.
With `N#Cc1ccc(-c2cccc(C(=O)O)c2)cc1NCc1ccccc1` [TRV 1128, 3′-(benzylamino)-4′-cyanobiphenyl-3-carboxylic acid], the IC50 was > 50 µM.
The same measure, in the same setting: the value for `O=C(C1CCN(c2ccc([N+](=O)[O-])c(NCc3ccccc3)c2)CC1)N1CCCC1` [TRV 1133, (1-(3-(benzyl amino)-4-nitrophenyl)piperidin-4-yl)(pyrrolidin-1-yl)methanone] was 17.9 ± 13.3 µM; that for `CC(C)Nc1cc(N2CCN(C(=O)c3ccccc3)CC2)cc(C(F)(F)F)c1` [TRV 1169, (4-(3-(isopropylamino)-5-(trifluoromethyl)phenyl)piperazin-1-yl)(phenyl)methanone] was > 50 µM; that for `O=C(c1ccccc1)N1CCN(c2ccc(Cl)c(Nc3ccccc3)c2)CC1` [TRV 1094, (4-(4-chloro-3-(phenylamino)phenyl)piperazin-1-yl)(phenyl)methanone] was 31.6 ± 4.8 µM.
For `CCN(CC)c1cc(N2CCN(C(=O)c3ccccc3)CC2)ccc1[N+](=O)[O-]` [TRV 1135, (4-(3-(diethylamino)-4-nitrophenyl)piperazin-1-yl)(phenyl)methanone], the midpoint of inhibition, the IC50, lay at 12.4 ± 0.62 µM.
Still for that read-out and setting: next, `CC(C)N(C)c1cc(N2CCN(C(=O)c3ccccc3)CC2)ccc1[N+](=O)[O-]` [TRV 1152, (4-(3-(isopropyl(methyl)amino)-4-nitrophenyl)piperazin-1-yl)(phenyl)methanone]: 16.9 ± 0.52 µM; `CC(C)Nc1cc(N2CCN(C(=O)c3ccccc3)CC2)cc(F)c1C(F)(F)F` [TRV 1176, (4-(3-fluoro-5-(isopropylamino)-4-(trifluoromethyl)phenyl)piperazin-1-yl)(phenyl)methanone]: > 50 µM; `CN(Cc1ccccc1)C(=O)c1cccc(-c2ccc([N+](=O)[O-])c(NCc3ccccc3)c2)c1` [TRV 1118, N-benzyl-3′-(benzylamino)-N-methyl-4′-nitrobiphenyl-3-carboxamide]: 6.47 ± 4.92 µM.
The same measure, in the same setting: next, `CN1CCN(c2cc(N3CCN(C(=O)c4ccccc4)CC3)ccc2[N+](=O)[O-])CC1` [TRV 1146, (4-(3-(4-methylpiperazin-1-yl)-4-nitrophenyl)piperazin-1-yl)(phenyl)methanone]: > 10 µM.
The inhibition is the change of the read-out against control, counted positive when it falls. Lower therefore signals a weak effect. `CC(O)c1cccc(-c2ccc(F)c(N3CCCC3)c2)c1` (stereo not shown) [TRV 1246]: the IC50 was < 50 µM. Also, the inhibition at 50 µM (50 μM compound) amounted to 56.8%.
In the case of `O=C(c1ccccc1)N1CCN(c2ccc(OC(F)(F)F)c(NCc3ccccc3)c2)CC1` [TRV 1185, (4-(3-(benzylamino)-4-(trifluoromethoxy)phenyl)piperazin-1-yl)(phenyl)methanone], the IC50 is > 50 µM.
Same read-out and setting: next, `O=C(c1ccccc1)N1CCN(c2cc(F)cc(N3CCCC3)c2)CC1` [TRV 1170, (4-(3-fluoro-5-(pyrrolidin-1-yl)phenyl)piperazin-1-yl)(phenyl)methanone]: > 50 µM; `NC(=O)c1cccc(-c2ccc([N+](=O)[O-])c(NCc3ccccc3)c2)c1` [TRV 1103, 3′-(benzylamino)-4′-nitrobiphenyl-3-carboxamide]: 10.5 ± 0.75 µM.
Consider `CC(C)Nc1cc(N2CCN(C(=O)c3ccccc3)CC2)ccc1C#N` [TRV 1168, 4-(4-benzoylpiperazin-1-yl)-2-(isopropylamino)benzonitrile], for which the IC50 is > 50 µM.
